We go through 2 compounds from patent US12509653B2, “Organ chip to model mammalian joint” (University of Pittsburgh—Of the Commonwealth System of …, priority 2017, dated 2025).

Assay [1] deals with chondrocytes and osteoblasts in the bioreactor. Briefly: RT-PCR marker expression in cartilage and bone chambers of the bioreactor under hormone stimulation. In kind it is cell-based. The following applies: progesterone progressively added to estradiol (week 3 and 4); higher when hormones directly applied to cartilage. The procedure:
Differential expression of markers (as determined by RT-PCR) was evaluated in a control medium that contained no estrogen or progesterone (first bar), and then different concentrations of hormones supplied to the chambers during week 1 (w1: 0.1 nM estradiol), week 2 (w2: 1 nM estradiol), week 3 (w3: 1 nM estradiol and 10 nM progesterone), and week 4 (w4: 0.1 nM estradiol and 50 nM progesterone). Differential expression of markers was determined in a control medium that contained no estrogen or progesterone (first bar), and then different concentrations of hormones supplied to the cartilage chamber during week 1 (w1: 0.1 nM estradiol), week 2 (w2: 1 nM estradiol), week 3 (w3: 1 nM estradiol and 10 nM progesterone), and week 4 (w4: 0.1 nM estradiol and 50 nM progesterone).

The next assay deals with synovial cells (SM). Nature of the assay: IL-1β stimulation of synovial cells in the microJoint (OA model), gene expression. In kind it is cell-based, human. The following applies: 10 ng/mL, 24 h. The procedure: To model OA in the microJoint, the pro-inflammatory cytokine interleukin (IL)-1β (10 ng/mL) was used to stimulate synovial cells for 24 h. Afterwards, IL-1β was withdrawn and inflamed synovium-conditioned medium was perfused through cartilage and FP tissues. […] M0/M1 macrophages can be introduced into the different tissues to investigate their interactions with other cells and implications on OA pathologies.
Different engineered joint tissues, including osteochondral complex (bone and cartilage), synovium, and fat pad were prepared as modules for convenient integration in the bioreactor. After maturation, they were integrated into a bioreactor (FIG. 28). Their interconnection was guided via directional fluidic flow of the culture medium to simulate in vivo physiology (FIG. 29). The bioreactors and accessories were manufactured by 3D printing. Micro-tissues were engineered by encapsulating P5 human MSCs in UV-photocrosslinked 15% methacrylated gelatin (GelMA), and differentiating and maturing them in different types of induction media. The health of individual tissues was assessed by real-time polymerase chain reaction (RT-PCR), histology and enzyme-linked immunosorbent assay (ELISA).

`CC(=O)[C@H]1CC[C@H]2[C@@H]3CCC4=CC(=O)CC[C@]4(C)[C@H]3CC[C@]12C` [progesterone]: the “cartilage anabolic markers, progesterone added” value in assay [1] is given as “downregulation is still present”. Regarding “IL-1β: pro-inflammatory cytokine interleukin (IL)-1β used to stimulate synovial cells”, the “expression levels of major catabolic genes in SM” value in the assay on synovial cells (SM) is listed as “significantly upregulated”.
